This is an account of results in patent US9227955B2, “Compound having angiogenesis inhibitory activity, method for preparing same, and pharmaceutical composition comprising same” (Boryung Pharmaceutical Co., Ltd., priority 2011, dated 2016).

The structures appear in SMILES notation. Marks after values point to notes of the source that are not given here.

Series [1] in a line: Cell viability MTS assay (cytotoxicity). The following applies: human; A-431 cells, 48 hrs incubation; read-out: IC50, MTS assay for cytotoxicity against A-431. It counts as cell-based. Here is the method: A-431 ([…], human, ATCC CRL-1555™) cells grown in DMEM (Dulbeco's Modified Eagle's Medium, Gibco #11885) were seeded at a density of 1×10^4 cells/well into 96-well plates and incubated at 37° C. for 18 hrs under the supply of 5% CO2 until the cells stably adhered to the bottom. […] After incubation for 48 hrs in the presence of the test compound, the cells were assayed for viability.
The cells in each well was added with 21 μl of a mixture of 20:1 (v/v) of an MTS solution [(3-(4,5-dimethylthiazol-2-yl)-5-(3-carboxymethoxyphenyl)-2-(4-sulfophenyl)-2H-tetrazolium, Promega, Cat#65421; 2 mg/ml] and a PMS solution [Phenazine methosulfate, Sigma #P9625; 1 mg/ml], and incubated for 2 hrs, followed by measuring absorbance at 490 nm on a microplate reader (Molecular device, spectraMax M2). Relative to the control (media), viability by drug concentration was determined from the measurements of formazan, and the results are given in Table 2, below.
A general note: Formazan colour is commonly taken as a measure of viable cells.

Series [2] has as its system HUVECs (human umbelical vein endothelial cells). As to the kind of experiment: Transwell assay, VEGF-induced cell migration in HUVECs. It counts as cell-based. Particulars: 10 ng/ml VEGF 24 hrs, n=3. Here is the method: To examine the inhibitory effect of the compounds obtained in the Examples on VEGF (Vascular endothelial growth factor)-induced cell migration in HUVECs (human umbelical vein endothelial cells), a transwell assay was performed as follows.
HUVECs, provided from ATCC (American Type Culture Collection), were incubated in EGM-2 (Endothelial growth Medium-2 Medium) including 10% FBS, penicillin (100 unit/ml) and 100 μg/ml streptomycin sulfate plus various growth factors at 37° C. in an atmosphere of 5% CO2. After the change of the medium with growth factor-free EBM-2 (Endothelial Basal Medium-2 Medium), the cells were subjected to transwell assay.
After for 24 hours, the cells were fixed for 1 min with ethanol and were stained with a dye. Cell migration was evaluated by counting cells which moved through the pores.
In addition, cells were treated with Compound No. 250 (Example 26) at various concentrations given in Table 3, and assayed for cell migration, as conducted with Compounds 103, 110, 218, 273, 275, 276, 290, 312, 428, 442, and 509. The results were compared with those obtained after non-treatment (no treat) or treatment with 10 ng/mL VEGF.
Results were expressed as average numbers (n=3) of HUVECs which moved cross the membrane. Test results are summarized in Table 3 for compounds 103, 110, 218, 273, 275, 276, 290, 312, 428, 442, and 509, and in Table 4 for compound 250.

A word on the IC50: it is the concentration needed to halve the response being measured.

As to `O=C(Nc1ccc(Oc2ccccc2)cc1)c1cccnc1NC1CCN(Cc2ccccc2)CC1` [Compound 110, 2-(1-Benzylpiperidin-4-ylamino)-N-(4-phenoxyphenyl)nicotinamide], the half-maximal inhibitory concentration (IC50) at 48 h in series [1] is 22.2 µM. In addition, in series [2] (25 μM), the “No. of migration cells/field” value is given as 10*** cells/field.

Consider `O=C(Nc1cccc(Cl)c1)c1cccnc1NC1CCN(CCO)CC1` [Compound 218, N-(3-Chlorophenyl)-2-[1-(2-hydroxyethyl)piperidin-4-ylamino]nicotinamide], for which the “No. of migration cells/field” value in series [2] (25 μM) is 7.5*** cells/field.

For the compound `O=C(Nc1cccc(Cl)c1)c1cccnc1N[C@H]1CCCN(Cc2ccccc2)C1` [Compound 273, (S)-2-(1-benzylpiperidin-3-ylamino)-N-(3-chlorophenyl)nicotinamide], in series [1], the IC50 at 48 h was 40.9 µM. The “No. of migration cells/field” value in series [2] (50 μM) is given as 12*** cells/field. On the same counts, the results for `O=C(Nc1cccc(Cl)c1)c1cccnc1N[C@H]1CCCNC1` [Compound 275, (S)—N-(3-chlorophenyl)-2-(3-piperidylamino)nicotinamide] are 94.6 µM and 11*** cells/field. Regarding `CC(C)(C)OC(=O)N1CCC[C@H](Nc2ncccc2C(=O)Nc2cccc(Cl)c2)C1` [Compound 276, (S)—N-(3-chlorophenyl)-2-(1-tert-butoxycarbamoylpiperidin-3-ylamino)nicotinamide], the “No. of migration cells/field” value in series [2] (50 μM) is 12.5*** cells/field.

Consider `O=C(Nc1cccc(Cl)c1)c1cccnc1SC1CCN(Cc2ccccc2)CC1` [Compound 290, 2-(1-Benzylpiperidin-4-ylsulfanyl)-N-(3-chlorophenyl)nicotinamide], for which the IC50 at 48 h in series [1] is 54.8 µM. Besides, the “No. of migration cells/field” value in series [2] (50 μM) is 14.5*** cells/field. For `O=C(Nc1cccc(Cl)c1)c1cc(F)c(Cl)nc1NC1CCN(CCO)CC1` [Compound 312, 6-chloro-N-(3-chlorophenyl)-5-fluoro-2-[1-(2-hydroxyethyl)piperidin-4-ylamino]nicotinamide] the same measures were 20.7 µM and 14*** cells/field.

Consider `O=C(NC(Cc1ccccc1)c1ccccc1)c1cccnc1NC1CCN(Cc2ccccc2)CC1` (stereo not shown) [Compound 426, 2-(1-Benzylpiperidin-4-ylamino)-N-(1,2-diphenylethyl)nicotinamide], for which the 50% inhibitory concentration (IC50) at 48 h in series [1] was 39.7 µM. For `CCCCC(CC)CNC(=O)c1cccnc1NC1CCN(Cc2ccccc2)CC1` (stereo not shown) [Compound 436, 2-(1-Benzylpiperidin-4-ylamino)-N-(2-ethylhexyl)nicotinamide], the half-maximal inhibitory concentration (IC50) at 48 h in series [1] turned out to be 34 µM. Consider `COC(=O)c1c(NC(=O)c2cccnc2NC2CCN(Cc3ccccc3)CC2)sc2c1CCNC2` [Compound 442, 2-{[2-(1-Benzylpiperidin-4-ylamino)pyridine-3-carbonyl]amino}-4,5,6,7-tetrahydro-thieno[2,3-c]pyridine-3-carboxylic acid methyl ester], for which, in series [2] (25 μM), the “No. of migration cells/field” value is given as 15*** cells/field. Turning to `COc1ccc(NC(=O)c2cccnc2NC2CCN(Cc3ccccc3)CC2)cc1OC` [Compound 443, 2-(1-Benzylpiperidin-4-ylamino)-N-(3,4-dimethoxyphenyl)nicotinamide], the 50% inhibitory concentration (IC50) at 48 h in series [1] came out at 140 µM. Turning to `COC(=O)c1c(NC(=O)c2cccnc2NC2CCCN(Cc3ccccc3)C2)sc2c1CCNC2` (stereo not shown) [Compound 509, 2-{[2-(1-benzylpiperidin-3-ylamino)pyridine-3-carbonyl]amino}-4,5,6,7-tetrahydrothieno[2,3-c]pyridine-3-carboxylic acid methyl ester], the “No. of migration cells/field” value in series [2] (25 μM) was 7*** cells/field. As to `CCCCC(CC)CNC(=O)c1ccc(Cl)nc1NC1CCN(CCO)CC1` (stereo not shown) [Compound 515, 6-Chloro-N-(2-ethylhexyl)-2-[1-(2-hydroxyethyl)piperidin-4-ylamino]nicotinamide], the concentration for half-maximal inhibition (IC50) at 48 h in series [1] was 23.8 µM. The same measure, in the same setting: then `CCCCC(CC)CNC(=O)c1cccnc1NC1CC(C)(C)NC(C)(C)C1` (stereo not shown) [Compound 517, N-(2-ethylhexyl)-2-(2,2,6,6-tetramethylpiperidin-4-ylamino)nicotinamide], with 50.7 µM.
